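In this assay, cells in 96-well plates receive the compound at five concentrations for 48 hours. Endpoints are linearly interpolated between the surrounding concentrations. Here, GI50 denotes the concentration required for 50% inhibition of growth.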 Activity calls are given as the source filed them. Rule as the data show it: active = GI50 up to about 1.1 µM and inactive = higher. Where only a bound is given, the exact number is not on record here.

Some test systems named below: NCI-H23; MDA-N; SN12C; TK-10; Malme-3M; CCRF-CEM; HCT-15; EKVX; SW-620; T47D; 786-0; HOP-62; Hs-578T; NCI-H460; OVCAR-3; SNB-19; RXF 393; SK-MEL-5; UO-31.
Common to all, as to assay: NCI-60 cell line screen, 48 h

Regarding `O=C(O)CCCOc1cc(-c2ccccc2F)nc2cc3c(cc12)OCO3`, the GI50 with NCI-H23 is 44.9 µM (inactive); in the assay with MDA-N, 1.72 µM (inactive); in the assay on SN12C, 19.3 µM (inactive); with TK-10, > 100 µM (inactive); in the assay with Malme-3M, 7.38 µM (inactive); in the assay on CCRF-CEM it was 3.27 µM (inactive). Besides, the GI50 in the assay with HCT-15 is 27.9 µM; in the assay on EKVX it was > 100 µM (inactive); in the assay on SW-620 it was 6.07 µM (inactive); with T47D it was > 100 µM (inactive); in the assay on 786-0, 6.38 µM (inactive); with HOP-62, 4.01 µM (inactive).

For `COc1cc(OC)c2c(=O)c3cccc(C)c3n(C)c2c1`, the GI50 in the assay on Hs-578T was 58.7 µM (inactive); with NCI-H23, > 100 µM (inactive); with MDA-N, 16.6 µM (inactive); in the assay with SN12C, > 100 µM (inactive); in the assay on NCI-H460, 94 µM (inactive); in the assay with OVCAR-3, 74.8 µM (inactive). The GI50 in the assay on TK-10 is > 100 µM (inactive); in the assay on Malme-3M it was 98.2 µM (inactive); with CCRF-CEM it was 36.3 µM (inactive); with HCT-15, more than 100 µM; in the assay on SNB-19, > 100 µM (inactive); in the assay with EKVX it was > 100 µM (inactive). For the same molecule, the GI50 in the assay on SW-620 is > 100 µM (inactive); in the assay on RXF 393, > 100 µM (inactive); with 786-0, > 100 µM (inactive); in the assay on SK-MEL-5, 22.4 µM (inactive); in the assay with HOP-62 it was > 100 µM (inactive).

As to `CCSC1=N/C(=C\c2ccccc2O)C(Nc2ccc(C)cc2)=N1`, the GI50 in the assay with Hs-578T is 56.1 µM (inactive); with UO-31, > 100 µM (inactive); in the assay with NCI-H23, 56 µM (inactive); with SN12C, 66.7 µM (inactive); with NCI-H460 it was 38.5 µM (inactive); in the assay with OVCAR-3 it was 22.4 µM (inactive). In addition, the GI50 is > 100 µM (inactive) in the assay on TK-10; 33.3 µM (inactive) in the assay with Malme-3M; 31 µM (inactive) in the assay with CCRF-CEM; 59.7 µM with HCT-15; 45.8 µM (inactive) with SNB-19; > 100 µM (inactive) in the assay with EKVX. Further, the GI50 in the assay on SW-620 was 50.6 µM (inactive); with RXF 393, 75.2 µM (inactive); in the assay with T47D, 50 µM (inactive); with 786-0, 91.6 µM (inactive); in the assay on SK-MEL-5, 30.2 µM (inactive); with HOP-62, 78.2 µM (inactive).

As to `Cc1ccc2c(c1)CC1(C2=O)[C@H](c2ccccc2)C2C(=O)c3ccc(C)cc3C2[C@H]1c1ccccc1` (stereo not given in full), the GI50 with UO-31, in the assay with NCI-H23, in the assay with MDA-N, in the assay on SN12C, with NCI-H460 and with OVCAR-3 was > 100 µM (inactive) each time. For the same molecule, the GI50 in the assay on TK-10 was > 100 µM (inactive); with Malme-3M, > 100 µM (inactive); in the assay with CCRF-CEM it was > 100 µM (inactive); in the assay on HCT-15, more than 100 µM; in the assay on SNB-19, > 100 µM (inactive); with EKVX, > 100 µM (inactive). Besides, the GI50 with SW-620, in the assay with RXF 393, in the assay on T47D, in the assay on 786-0 and in the assay on HOP-62 was > 100 µM (inactive) throughout.

As to `COC(=O)/C=C(\C)CC(O)/C=C(\C)CCC=C(C)C` (stereo not given), the GI50 in the assay with Hs-578T is 80 µM (inactive); in the assay with UO-31, 33.5 µM (inactive); in the assay with NCI-H23 it was 26.9 µM (inactive); in the assay on MDA-N it was 35.5 µM (inactive); with SN12C it was > 100 µM (inactive); in the assay with NCI-H460 it was 49.7 µM (inactive). Further, the GI50 in the assay on OVCAR-3 was 22.7 µM (inactive); in the assay on TK-10, 55.8 µM (inactive); in the assay with Malme-3M, 39.6 µM (inactive); in the assay with CCRF-CEM, 30.8 µM (inactive); in the assay with HCT-15, 58.6 µM; in the assay with SNB-19 it was > 100 µM (inactive). Besides, the GI50 is 46.1 µM (inactive) with EKVX; 60.8 µM (inactive) with SW-620; 31.7 µM (inactive) in the assay on RXF 393; 80.5 µM (inactive) with 786-0; 19.5 µM (inactive) with SK-MEL-5; > 100 µM (inactive) with HOP-62.

Regarding `Cc1cccc(NC2=NCCO2)c1Cl`, the GI50 in the assay with Hs-578T, in the assay with UO-31, with NCI-H23, in the assay with SN12C, in the assay on NCI-H460 and in the assay with TK-10 was > 100 µM (inactive) each time. For the same molecule, the GI50 with Malme-3M is > 100 µM (inactive); with CCRF-CEM it was > 100 µM (inactive); in the assay on HCT-15 it was more than 100 µM; in the assay with SNB-19, > 100 µM (inactive); with EKVX, > 100 µM (inactive); in the assay on SW-620, > 100 µM (inactive). The GI50 with RXF 393, in the assay on T47D, with 786-0, with SK-MEL-5 and in the assay on HOP-62 was > 100 µM (inactive) each time.

On to `CC(C)(C)OC(=O)NCC(C#N)CNC(=O)OC(C)(C)C`, for which the GI50 with Hs-578T, in the assay with UO-31, with NCI-H23, in the assay with SN12C, in the assay on NCI-H460 and in the assay with OVCAR-3 was > 100 µM (inactive) throughout. In addition, the GI50 with TK-10 was > 100 µM (inactive); in the assay on Malme-3M it was > 100 µM (inactive); in the assay with CCRF-CEM it was > 100 µM (inactive); with HCT-15, more than 100 µM; in the assay with SNB-19, > 100 µM (inactive); in the assay with EKVX, > 100 µM (inactive). In addition, the GI50 in the assay on SW-620, in the assay with RXF 393, in the assay on T47D, in the assay on 786-0, in the assay with SK-MEL-5 and with HOP-62 was > 100 µM (inactive) each time.

For the molecule `COCn1cnc2c(=O)n(-c3ccc(OC)cc3)c(=S)n(-c3ccc(OC)cc3)c21`, the GI50 in the assay with UO-31, in the assay on NCI-H23, with SN12C, in the assay with NCI-H460, in the assay on OVCAR-3 and with TK-10 was > 100 µM (inactive) throughout. Moreover, the GI50 in the assay on CCRF-CEM was > 100 µM (inactive); with HCT-15, more than 100 µM; in the assay on EKVX it was > 100 µM (inactive); in the assay on SW-620, > 100 µM (inactive); with RXF 393, > 100 µM (inactive); in the assay with T47D it was > 100 µM (inactive). Also, the GI50 in the assay with 786-0, in the assay on SK-MEL-5 and in the assay with HOP-62 was > 100 µM (inactive) in each case.

As to `CCCCn1c(O)nc2c(N)ncnc21`, the GI50 in the assay with Hs-578T, in the assay with UO-31, in the assay with NCI-H23, with MDA-N, in the assay on SN12C and in the assay on NCI-H460 was > 100 µM (inactive) throughout. The GI50 in the assay on OVCAR-3 was > 100 µM (inactive); with TK-10 it was > 100 µM (inactive); in the assay on Malme-3M, > 100 µM (inactive); with CCRF-CEM, > 100 µM (inactive); in the assay with HCT-15, more than 100 µM; with SNB-19, > 100 µM (inactive). The GI50 in the assay with EKVX was 92.9 µM (inactive); with SW-620, > 100 µM (inactive); in the assay on RXF 393, > 100 µM (inactive); in the assay on 786-0 it was > 100 µM (inactive); with SK-MEL-5 it was > 100 µM (inactive); with HOP-62, > 100 µM (inactive).
